Patent publication US20170157251A1, “Bi-Specific Monovalent Diabodies That are Capable of Binding CD19 and CD3, and Uses Thereof” (MacroGenics, Inc., priority 2015, published 2017)

Tests used:
[1] = system: human T cells; test: Ibrutinib alone on ex vivo T-cell proliferation (CellTiter-Glo); format: cell-based; details: 25, 250, 750 or 2500 nM, up to 3 days
Protocol: (§1) Normal human T cells (100,000/well) were treated with increasing concentrations of ibrutinib (0 nM, 25 nM, 250 nM, 750 nM or 2500 nM) for 0, 24, 48, and 72 hours under ex vivo T-cell proliferation/activation conditions, which contained T-cell activator anti-CD3/CD28 Dynabeads and rhIL-2.
Cell viability was determined using the CellTiter-Glo® Luminescent Viability Assay with relative light units (RLU) proportional to the number of viable cells.

[2] = system: human PBMCs; test: T-cell activation and cytokine release with DART-A-mediated B-cell depletion in human PBMCs in the presence of ibrutinib; format: cell-based
Source text: (§2) An autologous B-cell depletion assay with human PBMCs, which comprise both target cells (CD19+ B cells) and effector cells (CD3+ T cells) in a physiologically relevant cellular context, was utilized to evaluate the effect of ibrutinib on DART-A-mediated primary B-cell depletion, concomitant T-cell activation, and cytokine release.

[3] = once daily oral dose of 560 mg, cited from earlier work
[4] = system: human T cells; test: Ibrutinib alone on ex vivo T-cell activation (CD25); format: cell-based
Protocol: as §1
The percentages of CD25 in CD4+ and CD8+ T cell subsets were determined by flow cytometry. The effect of ibrutinib treatment alone on upregulation of CD25, a T-cell activation marker, was also evaluated on T cells activated with anti-CD3/CD28 and rhIL2.

[5] = system: primary B-cell (CD20+); test: DART-A-mediated autologous B-cell depletion with human PBMCs in the presence of ibrutinib; format: cell-based
Source text: as §2

[6] = system: Raji/GF cells; test: DART-A-mediated redirected killing of Raji/GF cells using ibrutinib-pretreated T cells (luciferase); format: cell-based, human; details: T cells pretreated with 2500 nM ibrutinib
Protocol: (§3) Suspension-cultured CD19-positive Raji/GF cells were harvested and washed with 1×DPBS or assay media containing RPMI 1640 without phenol red, 10% FBS, and pen/strep. Cell concentration and viability were measured by Trypan Blue dye exclusion using a Beckman Coulter Vi-Cell counter. The target cells were diluted in assay media to a cell density of 2×10^5 cells/mL. 50 μL of the diluted cell suspension was added to a 96-well, flat-bottom NUNCLON DELTA white plate (Thermo Scientific Cat #136101). For each treatment, duplicate wells were included. Human T cells, following treatment with ibrutinib for various times as described above, were collected and washed 3 times with assay media. After the final wash, the T cells were counted and resuspended in the assay medium at a cell density of 1×10^6 cells/mL and 100 μL were added to each well. […] The plates were incubated at room temperature in the dark for 10 minutes and then luciferase intensity was measured using a Victor2 Multilabel plate reader (Perkin Elmer #1420-014) with luciferase relative light unit (RLU) as the read-out. […] The percent cytotoxicity values were calculated as described below and concentration-response curves were generated using GraphPad Prism 6 software with curve fitting by the sigmoidal dose-response function.
Specific cell lysis was calculated from RLU data using the following formula: […]

[7] = system: human CD4+ and CD8+ T cells; test: DART-A-mediated T cell activation (CD25) with Raji/GF cells and concomitant ibrutinib; format: cell-based
Protocol: Assays were conducted as described above, except that: 1) fresh human T cells were substituted for ibrutinib pretreated human T cells; 2) 50 μL of T cells containing 200,000 cells were added into each well; and 3) 50 μL of ibrutinib solution at 10, 3, 1, 0.2, or 0 μM were added into the assay plates. […] The ibrutinib solutions were prepared by diluting a 1000 μM stock solution in 100% DMSO in assay medium with DMSO concentration being diluted to 1% DMSO. The final ibrutinib concentrations on the plate were 2500, 750, 250, 50, or 0 nM and the final DMSO concentration was 0.25%. Plates were incubated and processed as described previously.
However, the presence of ibrutinib inhibited DART-A-mediated CD25 upregulation in a concentration-dependent manner.

[8] = system: Raji/GF target cells; test: DART-A-mediated redirected killing of Raji/GF cells with concomitant ibrutinib; format: cell-based, human
Protocol: as §3, with “function. […]” for “function.”

[9] = system: human T cells; test: Ibrutinib alone on ex vivo T-cell cytokine production (ELISA); format: cell-based
Protocol: as §1
Production of IFN-γ, TNF-α, and IL-10 was measured by ELISA. […] Because of the minimal IL-6 cytokine production under the ex vivo T-cell proliferation/activation conditions tested, evaluation of ibrutinib's effect on IL-6 induction was not feasible.

[10] = system: target cell; details: reported; cited from earlier work
[11] = target: T1, CD19 (Homo sapiens, UniProt P15391); details: reported; read-out: affinity for CD19; cited from earlier work
T1 sequence (P15391 20-556): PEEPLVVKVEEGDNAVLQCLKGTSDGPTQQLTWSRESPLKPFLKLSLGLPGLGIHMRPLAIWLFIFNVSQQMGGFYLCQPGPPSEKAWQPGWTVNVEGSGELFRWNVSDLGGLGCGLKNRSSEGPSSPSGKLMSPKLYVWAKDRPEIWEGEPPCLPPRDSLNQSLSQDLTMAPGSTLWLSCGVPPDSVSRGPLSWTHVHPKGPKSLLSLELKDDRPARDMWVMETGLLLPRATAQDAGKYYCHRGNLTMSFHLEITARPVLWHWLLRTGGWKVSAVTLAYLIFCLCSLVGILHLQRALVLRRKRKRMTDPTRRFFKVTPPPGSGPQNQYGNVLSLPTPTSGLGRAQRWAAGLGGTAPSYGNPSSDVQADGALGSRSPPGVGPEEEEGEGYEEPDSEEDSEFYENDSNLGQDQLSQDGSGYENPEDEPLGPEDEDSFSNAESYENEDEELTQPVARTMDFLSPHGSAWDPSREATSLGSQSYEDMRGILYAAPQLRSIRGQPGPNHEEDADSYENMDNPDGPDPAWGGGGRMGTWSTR

[12] = target: CD3 (Homo sapiens, UniProt P07766); details: reported; read-out: affinity for CD3; cited from earlier work
Sequence of CD3 (P07766 23-207): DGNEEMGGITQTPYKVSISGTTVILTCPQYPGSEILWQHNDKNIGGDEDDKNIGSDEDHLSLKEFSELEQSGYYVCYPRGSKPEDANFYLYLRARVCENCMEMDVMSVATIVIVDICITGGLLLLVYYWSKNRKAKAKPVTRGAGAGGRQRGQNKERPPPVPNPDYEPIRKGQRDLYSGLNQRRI
Sequence of CD3 (P04234 22-171 partner): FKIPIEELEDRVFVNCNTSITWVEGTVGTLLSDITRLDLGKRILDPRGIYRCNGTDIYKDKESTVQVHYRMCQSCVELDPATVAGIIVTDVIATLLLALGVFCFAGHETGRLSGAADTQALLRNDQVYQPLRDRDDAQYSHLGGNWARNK
Sequence of CD3 (P09693 23-182 partner): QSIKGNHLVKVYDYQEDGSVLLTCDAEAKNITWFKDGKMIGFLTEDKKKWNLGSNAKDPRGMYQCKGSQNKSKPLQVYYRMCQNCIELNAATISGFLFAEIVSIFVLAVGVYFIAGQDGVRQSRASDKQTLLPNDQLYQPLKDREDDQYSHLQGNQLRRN

[13] = system: indolent lymphomas; details: retreatment with single agent; cited from earlier work

Question: Which “ability of T cells to respond to anti-CD3/CD28 and rhIL-2 stimulation (cell numbers)” value [1] does the source give for `C=CC(=O)N1CCC[C@@H](n2nc(-c3ccc(Oc4ccccc4)cc3)c3c(N)ncnc32)C1` [ibrutinib, 1-[(3R)-3-[4-Amino-3-(4-phenoxyphenyl)-1H-pyrazolo[3,4-d]pyrimidin-1-yl]piperidin-1-yl]prop-2-en-1-one, reference compound] here?
Answer: had no impact

Question: And the “inhibition of concomitant T-cell activation and cytokine production” value ([2]; ibrutinib 250 nM)?
Answer: partial inhibition

Question: What about the “inhibition of concomitant T-cell activation and cytokine production” value ([2]; ibrutinib 2500 nM) of the same compound?
Answer: nearly complete inhibition

Question: What about the “minimum (Ctrough) serum concentration” value [3] of the same compound?
Answer: 25 to 50 nM

Question: And the Cmax ([3]; read-out: maximum (Cmax) serum concentration)?
Answer: ~250 nM

Question: What about the “impact on CD25+ upregulation” value ([4]; ibrutinib 750 nM) of the same compound?
Answer: some modest impact

Question: What about the “reduction in the number of CD4+/CD25+ T cells” value ([4]; ibrutinib 2500 nM, 24 hour) of the same compound?
Answer: ~60%

Question: And the “reduction in the number of CD8+/CD25+ T cells” value ([4]; ibrutinib 2500 nM, 24 hour)?
Answer: ~95%

Question: What about the “inhibition of CD25 upregulation” value ([4]; ibrutinib ≦250 nM) of the same compound?
Answer: minimal or no inhibition

Question: What about the inhibition at 0.75 µM ([5]; Homo sapiens, B-cell, ibrutinib 750 nM) of the same compound?
Answer: 8%

Question: What about the inhibition at 2.5 µM ([5]; Homo sapiens, B-cell, ibrutinib 2500 nM) of the same compound?
Answer: 60%

Question: What about the “inhibition of DART-A-mediated primary B-cell (CD20+) depletion” value ([5]; ibrutinib ≦250 nM) of the same compound?
Answer: minimal to no inhibition

Question: And the “increase in DART-A EC50 value” [6]?
Answer: ~3 fold

Question: And the Emax at 0.75 µM ([7]; ibrutinib 750 nM, read-out: inhibition in the maximal levels (Emax) of T-cell activation)?
Answer: ≤ 36%

Question: And the Emax at 2.5 µM ([7]; ibrutinib 2500 nM, read-out: inhibition in the maximal levels (Emax) of T-cell activation)?
Answer: ≤ 63%

Question: What about the Emax ([7]; ibrutinib ≦250 nm, vs untreated group, read-out: inhibition in the maximal levels (Emax) of T cell activation (% CD25)) of the same compound?
Answer: < 20%

Question: What about the “increase of DART-A EC50 values” ([8]; ibrutinib 750 nM, both time points) of the same compound?
Answer: 8-9 fold

Question: What about the “inhibitory effect on DART-A-mediated redirected T-cell killing” value ([8]; ibrutinib ≦250 nM) of the same compound?
Answer: no or minimal inhibitory effect

Question: And the IFN-γ ([9]; 2500 nM, all time points)?
Answer: a small reduction in IFN-γ

Question: What about the “IL-10 and TNF-α production” value ([9]; 2500 nM, from 24 hours) of the same compound?
Answer: decreased IL-10 and TNF-α production

Question: And the “impact on TNF-α, IL-10 and IFN-γ release” value ([9]; up to 750 nM, up to 72 hours)?
Answer: no or minimal impact

Question: Which “EC50 for target cell lysis in vitro” value [10] does the source give for “Blinatumomab: bi-specific scFv-CD19×CD3 BiTE” here?
Answer: 0.01 to 0.1 ng/mL

Question: What about the Kd [11] of the same compound?
Answer: ~1 nM

Question: And the Kd [12]?
Answer: ~100 nM

Question: For “rituximab: anti-CD20 monoclonal antibody”, which response rate [13] is on record?
Answer: 40%
